{"source": "patent US9155723B2", "about": "“Anti-CXCR4 as a sensitizer to cancer therapeutics” (THE GENERAL HOSPITAL CORPORATION, priority 2010, dated 2015)", "key": {"[1]": {"system": "CXCL12", "conditions": "cited from earlier work"}, "[2]": {"system": "Gr-1+ BMDCs", "conditions": "in vitro", "procedure": "(§1) Bone marrow cells were collected in heparin-mixed PBS. The cellular filtrate was washed and a layer containing mononuclear BM cells was separated using Histopaque-1083 (Sigma). For the migration assay, BM cells were separated by CD11b, F4/80, or Gr-1 magnetic microbeads (MACS-beads; Miltenyi Biotech) from VEGFR1TK+/+ and VEGFR1TK−/− mice as per manufacturer's protocol. These cells were incubated with recombinant proteins for migration assays\n(§2) The migration of mononuclear CD11b+ BMDCs (2×10^6 cells per mL), F4/80+ BMDCs (8×10^5 cells per mL), and Gr-1+ BMDCs (8×10^5 cells per mL) was evaluated using a chemotaxis Boyden chamber (Neuroprobe). The upper and lower wells were separated by a […] pore size polyvinylpyrrolidone-free polycarbonate filter (Nucreopore; Costar). […] A 50-μl aliquot of the cell suspension was seeded in the upper wells and incubated for 3 h at 37° C. with 5% CO2. The number of cells that migrated through the membrane was counted."}, "[3]": {"system": "TRAMP-C1 prostate tumors", "procedure": "TRAMP-C1 tumors were implanted s.c. in male C57BL/6 mice, and E0771 tumors were implanted s.c. in female C57BL/6 mice after BMT and recovery and/or after BMT and Mx-Cre recombination (n=5-6 mice) (SI Materials and Methods). […] Lung tissue was isolated from mice 2-4 wk after removal of the primary tumor.\n(§3) AMD3100 was delivered by s.c. Alzet pumps containing 10 mg/mL AMD3100 in PBS at a dose of 60 μg/day, and pumps with PBS only were used as a control. The pumps were replaced every 2 wk.\nMice ranging from 8 to 22 wk old [due to prior bone marrow transplantation (BMT) and/or recombination procedures] were used. […] All experiments were performed at least twice. Metastatic tumor volume was measure by the formula: V=small diameter×long diameter×number of microscopic metastases."}, "[4]": {"system": "54A human lung tumors", "conditions": "AMD3100 osmotic pumps alone for 2 weeks, no irradiation; 54A tumors", "text": "(§4) 54A human lung tumors were xenografted in male athymic NCr/Sed nude (nu/nu) mice, and MCa8 mouse mammary carcinomas were implanted in female syngeneic FVB mice (both subcutaneously in the hind limb; refs. 3, 11). To detect specific BMDC populations in tumors (i.e., Tie2^+CD11b^− EPCs and Tie2^+CD11b^+ TEMs), irradiated wild-type FVB mice were irradiated with 9 Gy of whole-body irradiation (WBI) followed by restorative bone marrow transplantation (BMT) from Tie2-GFP-FVB donors to create chimeric wild-type/Tie2-GFP-BMT mice (3). MCa8 tumors were implanted in these mice 6 weeks post-BMT.\n(§5) Tumor size was measured with a caliper at least thrice a week. When a tumor reached 5.5 mm in mean diameter, the mouse was randomized to a treatment group. Tumors were γ-irradiated using the same dose delivered either locally alone or locally plus a sublethal WBI dose of 6 Gy. […] Unsorted BMDCs (from femurs and tibias of one tumor- and treatment-naïve donor to two recipients) or fluorescence-activated cell-sorted Sca1^−CD11b^+ (150,000-200,000 cells) or Sca1^+CD11b^+ (25,000-50,000) BMDCs (from one donor to one recipient) were i.v. infused in mice receiving LI plus WBI. […] Therapeutic efficacy was measured as the time taken for tumors to grow to 7.5 mm in diameter (i.e., 2.5-fold increase compared with the pretreatment volume)."}, "[5]": {"system": "MCa8 mouse mammary carcinomas", "conditions": "AMD3100 osmotic pumps alone for 2 weeks, no irradiation; MCa8 tumors", "text": "as §4, §5"}, "[6]": {"system": "E0771 mammary tumors", "procedure": "as §3\n(§6) Primary tumor tissues were fixed and frozen. Sections were stained with rat antibodies against mouse CD11b, MECA 32, Gr-1 (BD Pharmingen), and F4/80 (Serotec). Cy3- or FITC-conjugated secondary antibodies were used for the detection of signals by confocal microscopy. Slides were counterstained with DAPI for nuclear staining. The number of cells was quantified by measuring the area occupied by immunostained mononuclear cells normalized by the area of DAPI-stained nuclei (i.e., unitless). Phopho-p38 MAPK level was measured by Western blotting.\n(§7) Primary tumor tissues were fixed in 4% paraformaldehyde at 4° C. for 2 h, dehydrated in 30% sucrose overnight, and embedded in optimal cutting temperature (OCT) compound in frozen samples for immunofluorescence histological analyses."}, "[7]": {"system": "TRAMP-C1 prostate tumors", "procedure": "as §3, §6, §7", "remark": "listed apart in the source"}, "[8]": {"system": "CD11b+ myeloid BMDCs", "test": "In vitro migration assay (Boyden chamber), CD11b+ myeloid BMDCs", "type": "cell-based, mouse", "procedure": "as §1, §2\nTo reveal the mechanism of action of VEGFR1 and CXCR4 in myeloid BMDCs, bone marrow cells were harvested from C57BL/6 and VEGFR1 TK−/− mice and purified mononuclear myeloid BMDCs using magnetic separation for CD11b+ cells."}}, "note": "“Also recorded” adds a separate entry of the source. Read-outs that look alike come from different tables or passages of the source.", "data": [{"smiles": "COc1cc2c(Oc3ccc4[nH]c(C)cc4c3F)ncnc2cc1OCCCN1CCCC1", "note": "[cediranib]", "values": [{"measurement": "circulating CXCL12", "setting": "[1]; recurrent GBM, P < 0.001", "value": "therapy increases"}]}, {"smiles": "c1cc(CN2CCCNCCNCCCNCC2)ccc1CN1CCCNCCNCCCNCC1", "note": "[AMD3100, 1,1′-[1,4-phenylene-bis(methylene)]-bis-1,4,8,11-tetraazacyclotetradecane]", "values": [{"measurement": "rCXCL12-induced migration of Gr-1+ BMDCs", "setting": "[2]", "value": "reversed"}, {"measurement": "lung metastatic burden after primary tumor resection", "setting": "[3]; BMT-VEGFR1^TK−/− mice, TRAMP-C1", "value": "significantly reduced metastatic burden"}, {"measurement": "growth of established tumors", "setting": "[3]; intervention setting, growth from 4 mm to ~1 cm, established TRAMP-C1", "value": "less substantial growth delay"}, {"measurement": "tumor growth", "setting": "[4]", "value": "did not affect tumor growth"}, {"measurement": "tumor growth", "setting": "[5]", "value": "did not affect tumor growth"}, {"measurement": "TAM infiltration", "setting": "[6]; AMD3100 alone", "value": "did not affect the TAM infiltration"}, {"measurement": "number of total myeloid BMDCs in tumor", "setting": "[6]; AMD3100 alone", "value": "decreased the number of total myeloid BMDCs"}, {"measurement": "microvascular density (MVD)", "setting": "[6]; AMD3100 alone, prevention setting", "value": "decreased MVD"}, {"measurement": "Gr-1+ myeloid BMDC infiltration", "setting": "[6]; irrespective of VEGFR1-TK status in BMDCs", "value": "decreased Gr-1+ myeloid BMDCs; also recorded: decreases Gr-1^+ BMDC infiltration"}, {"measurement": "TAM infiltration", "setting": "[7]; AMD3100 alone, TRAMP-C1", "value": "did not affect the TAM infiltration"}, {"measurement": "number of total myeloid BMDCs in tumor", "setting": "[7]; AMD3100 alone, TRAMP-C1", "value": "not in TRAMP-C1 tumors"}, {"measurement": "Gr-1+ myeloid BMDC infiltration", "setting": "[7]; irrespective of VEGFR1-TK status in BMDCs, TRAMP-C1", "value": "decreased Gr-1+ myeloid BMDCs; also recorded: decreases Gr-1^+ BMDC infiltration"}, {"measurement": "number of Gr-1+ BMDCs during early tumor growth", "setting": "[7]; small (4-mm) tumors, preventive setting, TRAMP-C1 model, 8-wk-old mice", "value": "significantly decreased the number of Gr-1+ BMDCs; also recorded: significantly reduces Gr-1^+ myeloid BMDC infiltration"}, {"measurement": "rCXCL12-induced migration of WT myeloid BMDCs", "setting": "[8]; 1 μg/mL of AMD3100, rCXCL12 100 ng/mL, transwell assay", "value": "reversed"}]}, {"smiles": "CNC(=O)c1cc(Oc2ccc(NC(=O)Nc3ccc(Cl)c(C(F)(F)F)c3)cc2)ccn1", "note": "[sorafenib]", "values": [{"measurement": "circulating CXCL12", "setting": "[1]; advanced sarcoma, P < 0.01", "value": "therapy increases"}]}, {"smiles": "C[S+]([O-])c1ccc(-c2nc(-c3ccncc3)c(-c3ccc(F)cc3)[nH]2)cc1", "note": "(centres unmarked) [SB203580]", "values": [{"measurement": "migration of myeloid BMDCs", "setting": "[8]; SB203580 1 μM, rVEGF or rCXCL12, irrespective of the chemotactic stimulus", "value": "significantly reduced the migration of myeloid BMDCs; also recorded: decreased migration of myeloid BMDCs"}]}]}
